The NIST ThermoML archive (doi:10.1016/j.fluid.2012.09.027)
Numbers after ± are expanded uncertainties.

Key:
[1] = Crystal; DTA
[2] = Molar enthalpy of transition or fusion; settings: Crystal; DSC

Normal melting temperature [1]: 169 ± 1 °C
Molar enthalpy of transition or fusion [2]: 27.7 ± 0.79 kJ/mol
Structure (SMILES): CCOc1nc2cccc(C(=O)OC(C)OC(=O)OC3CCCCC3)c2n1Cc1ccc(-c2ccccc2)c(-c2nnn[nH]2)c1 (configuration not stated)
